Assay results from patent US10519169B2, “3-(1H-pyrrolo[2,3-C]pyridin-2-yl)-1 H-pyrazolo[4,3-B]pyridines and therapeutic uses thereof” (Samumed, LLC, priority 2015, dated 2019).

How the values were obtained:
Type in all cases: cell-based
[1] = tested on: Wnt activity (Sp5-Luc reporter, TCF/LEF binding sites) in SW480 colon carcinoma cells; assay: Wnt activity screening assay, Sp5-Luc reporter gene in SW480 cells; settings: Homo sapiens; for inhibition at 10 µM: given for EC50 >10 μM, read-out: percent inhibition at 10 μM; for EC50: overnight incubation
Source text: The screening assay for Wnt activity is described as follows. Reporter cell lines can be generated by stably transducing cancer cell lines (e.g., colon cancer) or primary cells (e.g., IEC-6 intestinal cells) with a lentiviral construct that includes a Wnt-responsive promoter driving expression of the firefly luciferase gene.
SW480 colon carcinoma cells were transduced with a lentiviral vector expressing luciferase with a human Sp5 promoter consisting of a sequence of eight TCF/LEF binding sites. SW480 cells stably expressing the Sp5-Luc reporter gene and a hygromycin resistance gene were selected by treatment with 150 μg/mL of hygromycin for 7 days. These stably transduced SW480 cells were expanded in cell culture and used for all further screening activities. Each compound was dissolved in DMSO as a 10 mM stock and used to prepare compound source plates. Serial dilution (1:3, 10-point dose-response curves starting from 10 μM) and compound transfer was performed using the ECHO 550 (Labcyte, Sunnyvale, Calif.) into 384-well white solid bottom assay plates (Greiner Bio-One) with appropriate DMSO backfill for a final DMSO concentration of 0.1%. For Sp5-Luc reporter gene assays, the cells were plated at 4,000 cells/well in 384-well plates with medium containing 1% fetal bovine serum and incubated overnight at 37° C. and 5% CO2. Following incubation, 20 μl of BrightGlo luminescence reagent (Promega) was added to each well of the 384-well assay plates. The plates were placed on an orbital shaker for 2 min and then luminescence was quantified using the Envision (Perkin Elmer) plate reader. Readings were normalized to DMSO only treated cells, and normalized activities were utilized for EC50 calculations using the dose-response log (inhibitor) vs. response-variable slope (four parameters) nonlinear regression feature available in GraphPad Prism 5.0 (or Dotmatics). For EC50 of >10 μM, the percent inhibition at 10 μM is provided.

SW480 colon cancer cells = assay: Cell viability assay (CellTiter-Blue), SW480 cells; settings: Homo sapiens; for EC50: 96 h, four days, CellTiter-Blue; for inhibition at 10 µM: given for EC50 >10 μM, read-out: percent inhibition at 10 μM
Method: Representative compounds were screened using the following assay procedure to assess the effect on cell viability as described below.
Each compound was dissolved in DMSO as a 10 mM stock and used to prepare compound source plates. Serial dilution (1:3, 8-point dose-response curves from […]) and compound transfer was performed using the ECHO 550 (Labcyte, Sunnyvale, Calif.) into 96-well clear bottom, black-walled plates (Corning-Costar).
Approximately 2×10^3 SW480 colon cancer cells were seeded into each well and allowed to incubate in the presence or absence of compound for four days at 37° C./5% CO2. Eight replicates of DMSO-treated cells served as controls and cells treated with compound were performed in duplicate.
After incubation, 20 μL of CellTiter-Blue (Promega) was added to each well allowed to incubate for approximately 3 hours. This reagent was a buffered solution which contains resazurin, metabolically active cells were able to reduce rezarurin (blue) into resorufin (pink) which was highly fluorescent. This measured fluorescence was used as a readout for cell viability.
After incubation, the plates were read at Ex 560 nm Em 590 nm (Cytation 3, BioTek). Dose-response curves were generated and EC50 concentration values were calculated using non-linear regression curve fit in the GraphPad Prism (San Diego, Calif.) or Dotmatics' Studies Software (Bishops Stortford, UK). For EC50 of >10 μM, the percent inhibition at 10 μM is provided.

[2] = tested on: primary human mesenchymal stem cells (hMSCs); assay: Chondrogenesis induction in hMSCs (chondrogenic nodules); settings: 144 h, 6 days; for EC50: concentration required to induce 50% levels of chondrogenesis vs TGF-β3, read-out: Conc (nM) of 50% TGF-β3 activity; for Emax: nodules, relative to TGF-β3 positive control (10 ng/mL), read-out: Max. Activity as % TGF-β3 activity
Method: Representative compounds were screened using primary human mesenchymal stem cells (hMSCs) to determine their ability to induce chondrogenesis (process by which cartilage is developed).
Primary human mesenchymal stem cells (hMSCs) were purchased from Lonza (Walkersville, Md.) and expanded in Mesenchymal Stem Cell Growth Media (Lonza). Cells between passage 3 and 6 were used for the experiments.
Each compound was dissolved in DMSO as a 10 mM stock and used to prepare compound source plates. Serial dilution (1:3, 6-point dose-response curves from 2700 nM to 10 nM) and compound transfer was performed using the ECHO 550 (Labcyte, Sunnyvale, Calif.) into 96-well clear bottom assay plates (Greiner Bio-One) with appropriate DMSO backfill for a final DMSO concentration of 0.03%. hMSCs were plated at 20,000 cells/well in 250 μL/well Incomplete Chondrogenic Induction Medium (Lonza; DMEM, dexamethasone, ascorbate, insulin-transferrin-selenium [ITS supplement], gentamycin-amphotericin [GA-1000], sodium pyruvate, proline and L-glutamine). TGF-03 (10 ng/mL) was used as a positive control for differentiation while negative control wells were treated with 75 nL DMSO for normalization and calculating EC50 values. Cells were incubated at 37° C. and 5% CO2 for 6 days. To image chondrogenic nodules, the cells were fixed using 4% formaldehyde (Electron Microscopy Sciences), and stained with 2 μg/mL Rhodamine B (Sigma-Aldrich) and 20 μM Nile Red (Sigma-Aldrich) [Johnson K., et. al, A Stem Cell-Based Approach to Cartilage Repair, Science, (2012), 336(6082), 717-721]. The nodules imaged (4 images per well at 4× magnification) by excitation at 531 nm and emission at 625 nm and quantified using the CellInsight CX5 (Thermo Scientific). Number of nodules in each well was normalized to the average of 3 DMSO treated wells on the same plate using Excel (Microsoft Inc.). The normalized averages (fold change over DMSO) of 3 replicate wells for each compound concentration were calculated. Due to solubility limitations of some of the compounds, curve fitting was incomplete leading to inaccurate EC50 determinations.
Using TGF-β3 as a positive control, the concentration of representative compounds required to induce 50% levels of chondrogenesis is reported. In addition, the maximum activity of each compound and the respective dose that each compound reached maximum chondrogenesis activity is reported.

| EC50 [1] | EC50 (SW480 colon cancer cells) | EC50 [2] | SMILES | inhibition at 10 µM [1] | inhibition at 10 µM (SW480 colon cancer cells) | Emax [2] |
| --- | --- | --- | --- | --- | --- | --- |
| > 10000 nM | > 10000 nM | 10 nM | CS(=O)(=O)NCc1cc(F)cc(-c2cncc3[nH]c(-c4n[nH]c5ccc(-c6cncnc6)nc45)cc23)c1 [Compound 503, N-(3-Fluoro-5-(2-(5-(pyrimidin-5-yl)-1H-pyrazolo[4,3-b]pyridin-3-yl)-1H-pyrrolo[2,3-c]pyridin-4-yl)benzyl)methane sulfonamide] | 46.4% | 28.3% | 106% |
| 7020 nM | 4040 nM | 10 nM | Cn1cc(-c2ccc3[nH]nc(-c4cc5c(-c6cccnc6)cncc5[nH]4)c3n2)cn1 [Compound 556, 5-(1-Methyl-1H-pyrazol-4-yl)-3-(4-(pyridin-3-yl)-1H-pyrrolo[2,3-c]pyridin-2-yl)-1H-pyrazolo[4,3-b]pyridine] |  |  | 52% |
| 516 nM | 357 nM | 100 nM | CN(C)c1cncc(-c2ccc3[nH]nc(-c4cc5c(-c6cccc(F)c6)cncc5[nH]4)c3n2)c1 [Compound 7, 5-(3-(4-(3-Fluorophenyl)-1H-pyrrolo[2,3-c]pyridin-2-yl)-1H-pyrazolo[4,3-b]pyridin-5-yl)-N,N-dimethylpyridin-3-amine] |  |  | 85% |
| > 10000 nM | > 10000 nM |  | c1ccc(-c2ccc3[nH]nc(-c4cc5ccncc5[nH]4)c3n2)nc1 [Compound 280, 5-(Pyridin-2-yl)-3-(1H-pyrrolo[2,3-c]pyridin-2-yl)-1H-pyrazolo[4,3-b]pyridine] | 2.1% | 3.3% |  |
| > 10000 nM | > 10000 nM | 2700 nM | Fc1cccc(-c2cncc3[nH]c(-c4n[nH]c5ccc(C6CCNCC6)nc45)cc23)c1 [Compound 505, 3-(4-(3-Fluorophenyl)-1H-pyrrolo[2,3-c]pyridin-2-yl)-5-(piperidin-4-yl)-1H-pyrazolo[4,3-b]pyridine] | 32.9% | 26% | 103% |
| 1510 nM | 557 nM | 30 nM | CN(C)Cc1cncc(-c2ccc3[nH]nc(-c4cc5c(-c6ccccc6F)cncc5[nH]4)c3n2)c1 [Compound 69, 1-(5-(3-(4-(2-Fluorophenyl)-1H-pyrrolo[2,3-c]pyridin-2-yl)-1H-pyrazolo [4,3-b]pyridin-5-yl)pyridin-3-yl)-N,N-dimethylmethanamine] |  |  | 51% |
| 3710 nM | 4610 nM | 10 nM | Fc1cccc(-c2cncc3[nH]c(-c4n[nH]c5ccc(-c6cncc(CN7CCCCC7)c6)nc45)cc23)c1 [Compound 15, 3-(4-(3-Fluorophenyl)-1H-pyrrolo[2,3-c]pyridin-2-yl)-5-(5-(piperidin-1-ylmethyl)pyridin-3-yl)-1H-pyrazolo[4,3-b]pyridine] |  |  | 54% |
| 751 nM | 827 nM | 900 nM | Fc1ccc(-c2cncc3[nH]c(-c4n[nH]c5ccc(-c6cncc(CN7CCC(F)(F)C7)c6)nc45)cc23)cc1 [Compound 54, 5-(5-((3,3-Difluoropyrrolidin-1-yl)methyl)pyridin-3-yl)-3-(4-(4-fluorophenyl)-1H-pyrrolo[2,3-c]pyridin-2-yl)-1H-pyrazolo[4,3-b]pyridine] |  |  | 194% |
| > 10000 nM | 5260 nM | 10 nM | c1cc(-c2cncc3[nH]c(-c4n[nH]c5ccc(-c6cncc(CN7CCCCC7)c6)nc45)cc23)ccn1 [Compound 127, 5-(5-(Piperidin-1-ylmethyl)pyridin-3-yl)-3-(4-(pyridin-4-yl)-1H-pyrrolo[2,3-c]pyridin-2-yl)-1H-pyrazolo[4,3-b]pyridine] | 29.6% |  | 97% |
| 3650 nM | > 10000 nM | 300 nM | CS(=O)(=O)NCc1cc(F)cc(-c2cncc3[nH]c(-c4n[nH]c5ccc(-c6ccccn6)nc45)cc23)c1 [Compound 504, N-(3-Fluoro-5-(2-(5-(pyridin-2-yl)-1H-pyrazolo[4,3-b]pyridin-3-yl)-1H-pyrrolo[2,3-c]pyridin-4-yl)benzyl)methanesulfonamide] |  | 47.6% | 99% |
| > 10000 nM | > 10000 nM | 30 nM | Nc1cncc(-c2ccc3[nH]nc(-c4cc5c(-c6ccncc6)cncc5[nH]4)c3n2)c1 [Compound 115, 5-(3-(4-(Pyridin-4-yl)-1H-pyrrolo[2,3-c]pyridin-2-yl)-1H-pyrazolo[4,3-b]pyridin-5-yl)pyridin-3-amine] | 30.1% | 7.6% | 53% |
| > 10000 nM | > 10000 nM |  | c1cc(-c2cncc3[nH]c(-c4n[nH]c5ccc(-c6cncc(OCCN7CCCC7)c6)nc45)cc23)co1 [Compound 690, 3-(4-(Furan-3-yl)-1H-pyrrolo[2,3-c]pyridin-2-yl)-5-(5-(2-(pyrrolidin-1-yl)ethoxy)pyridin-3-yl)-1H-pyrazolo[4,3-b]pyridine] | 7.4% | 0% |  |
| > 10000 nM | > 10000 nM |  | Cc1ncc(-c2ccc3[nH]nc(-c4cc5c(-c6ccncc6)cncc5[nH]4)c3n2)n1C [Compound 573, 5-(1,2-Dimethyl-1H-imidazol-5-yl)-3-(4-(pyridin-4-yl)-1H-pyrrolo[2,3-c]pyridin-2-yl)-1H-pyrazolo[4,3-b]pyridine] | 43.9% | 5.3% |  |
| > 10000 nM | > 10000 nM |  | O=C(Cc1ccccc1)Nc1cncc(-c2ccc3[nH]nc(-c4cc5c(-c6ccoc6)cncc5[nH]4)c3n2)c1 [Compound 318, N-(5-(3-(4-(Furan-3-yl)-1H-pyrrolo[2,3-c]pyridin-2-yl)-1H-pyrazolo[4,3-b]pyridin-5-yl)pyridin-3-yl)-2-phenylacetamide] | 0% | 23.8% |  |
| 3430 nM | 2310 nM |  | O=C(Nc1cncc(-c2ccc3[nH]nc(-c4cc5c(-c6ccc(F)cc6)cncc5[nH]4)c3n2)c1)c1ccccc1 [Compound 39, N-(5-(3-(4-(4-Fluorophenyl)-1H-pyrrolo[2,3-c]pyridin-2-yl)-1H-pyrazolo [4,3-b]pyridin-5-yl)pyridin-3-yl)benzamide] |  |  |  |
